Some test systems named below: SN12C renal; NCI-H226 lung; SK-MEL-2 melanoma; 786-0 renal; SK-MEL-5 melanoma; OVCAR-3 ovarian; MDA-MB-231 breast; RXF 393 renal; SF-539 CNS; HCT-15 colon.
Assay in all cases: NCI anticancer screen, dose series, 48 h

The structures appear in SMILES notation.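 Compound exposure: 48 hours, 5 concentrations, 96-well plates. GI50 marks 50% less growth. TGI: total growth inhibition.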 A value given as a limit tells only on which side of the number the result lay.

As to `Nc1ccn([C@H]2C[C@@H](O)[C@@H](CO)S2)c(=O)n1`, the GI50 in the experiment with SN12C renal is above 44.7 µM; in the experiment on NCI-H226 lung it was above 100 µM; in the experiment with SK-MEL-2 melanoma, above 100 µM; with 786-0 renal it was above 100 µM; in the experiment on SK-MEL-5 melanoma, above 42.3 µM; in the experiment with OVCAR-3 ovarian it was above 100 µM. Moreover, the GI50 was above 100 µM in the experiment on MDA-MB-231 breast, above 39.1 µM with RXF 393 renal, above 100 µM with SF-539 CNS and 11.8 µM in the experiment with HCT-15 colon. The TGI in the experiment with SN12C renal, with NCI-H226 lung, in the experiment with SK-MEL-2 melanoma, with 786-0 renal, in the experiment with SK-MEL-5 melanoma and with OVCAR-3 ovarian was above 100 µM in each case. Further, the TGI with MDA-MB-231 breast, in the experiment with RXF 393 renal, in the experiment with SF-539 CNS and in the experiment with HCT-15 colon was above 100 µM throughout.

For the origin of these results see PubChem BioAssay (NCI).
